One experiment deals with PI3K p110 beta/p85 alpha (Homo sapiens, UniProt P42338). Briefly: Inhibition of N-terminal His6-tagged recombinant full-length human p110beta/untagged recombinant full length p85alpha expressed in baculovirus infected Sf21 cells using phosphatidylinositol as substrate in presence of gamma-32P-ATP after 5 mins by thin layer chromatographic method.
Experiment [1] concerns the target PI3-kinase p110-delta/p85-alpha (Homo sapiens, UniProt O00329). Briefly: Inhibition of N-terminal His6-tagged recombinant full-length human p110delta/untagged recombinant full length p85alpha expressed in baculovirus infected Sf21 cells using phosphatidylinositol as substrate in presence of gamma-32P-ATP after 5 mins by thin layer chromatographic method.
A short description of experiment [2]: Antiproliferative activity against Balb/c mouse splenic B cells preincubated for 30 mins followed by LPS or F(ab')2 donkey anti-mouse IgM and recombinant mouse IL4 stimulation measured after 72 hrs by Alamar Blue reduction assay. Format: functional, cell-based. On the technique in general: The colour change of resazurin is a common sign of viable cells or microbes.

Experiment [3] addresses PI3-kinase p110-alpha/p85-alpha (Homo sapiens, UniProt P42336). Briefly: Inhibition of N-terminal His6-tagged recombinant full-length human p110alpha/untagged recombinant full length human p85alpha expressed in baculovirus infected Sf21 cells using phosphatidylinositol as substrate in presence of gamma-32P-ATP after 5 mins by thin layer chromatographic method.

PI3-kinase p110-delta/p85-alpha, sequence (P27986 whole entry): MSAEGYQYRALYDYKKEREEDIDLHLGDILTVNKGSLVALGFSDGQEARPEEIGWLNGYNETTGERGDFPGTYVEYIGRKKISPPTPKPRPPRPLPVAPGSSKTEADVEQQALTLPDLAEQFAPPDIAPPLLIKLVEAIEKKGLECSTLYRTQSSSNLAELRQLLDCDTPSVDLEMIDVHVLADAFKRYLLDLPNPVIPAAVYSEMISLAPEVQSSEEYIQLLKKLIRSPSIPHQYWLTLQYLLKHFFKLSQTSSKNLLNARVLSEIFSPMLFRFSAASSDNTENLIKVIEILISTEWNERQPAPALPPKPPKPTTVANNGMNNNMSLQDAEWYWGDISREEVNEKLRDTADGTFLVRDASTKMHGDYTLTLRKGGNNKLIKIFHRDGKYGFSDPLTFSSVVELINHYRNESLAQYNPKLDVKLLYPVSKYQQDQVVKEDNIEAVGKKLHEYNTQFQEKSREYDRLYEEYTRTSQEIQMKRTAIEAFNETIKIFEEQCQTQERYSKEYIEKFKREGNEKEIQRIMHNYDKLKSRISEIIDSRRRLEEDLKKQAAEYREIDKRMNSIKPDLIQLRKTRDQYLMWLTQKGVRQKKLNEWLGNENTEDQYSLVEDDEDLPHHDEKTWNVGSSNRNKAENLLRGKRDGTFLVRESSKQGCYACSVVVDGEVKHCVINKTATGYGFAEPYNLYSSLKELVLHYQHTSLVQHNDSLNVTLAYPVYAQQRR
PI3-kinase p110-delta/p85-alpha, sequence (O00329 whole entry): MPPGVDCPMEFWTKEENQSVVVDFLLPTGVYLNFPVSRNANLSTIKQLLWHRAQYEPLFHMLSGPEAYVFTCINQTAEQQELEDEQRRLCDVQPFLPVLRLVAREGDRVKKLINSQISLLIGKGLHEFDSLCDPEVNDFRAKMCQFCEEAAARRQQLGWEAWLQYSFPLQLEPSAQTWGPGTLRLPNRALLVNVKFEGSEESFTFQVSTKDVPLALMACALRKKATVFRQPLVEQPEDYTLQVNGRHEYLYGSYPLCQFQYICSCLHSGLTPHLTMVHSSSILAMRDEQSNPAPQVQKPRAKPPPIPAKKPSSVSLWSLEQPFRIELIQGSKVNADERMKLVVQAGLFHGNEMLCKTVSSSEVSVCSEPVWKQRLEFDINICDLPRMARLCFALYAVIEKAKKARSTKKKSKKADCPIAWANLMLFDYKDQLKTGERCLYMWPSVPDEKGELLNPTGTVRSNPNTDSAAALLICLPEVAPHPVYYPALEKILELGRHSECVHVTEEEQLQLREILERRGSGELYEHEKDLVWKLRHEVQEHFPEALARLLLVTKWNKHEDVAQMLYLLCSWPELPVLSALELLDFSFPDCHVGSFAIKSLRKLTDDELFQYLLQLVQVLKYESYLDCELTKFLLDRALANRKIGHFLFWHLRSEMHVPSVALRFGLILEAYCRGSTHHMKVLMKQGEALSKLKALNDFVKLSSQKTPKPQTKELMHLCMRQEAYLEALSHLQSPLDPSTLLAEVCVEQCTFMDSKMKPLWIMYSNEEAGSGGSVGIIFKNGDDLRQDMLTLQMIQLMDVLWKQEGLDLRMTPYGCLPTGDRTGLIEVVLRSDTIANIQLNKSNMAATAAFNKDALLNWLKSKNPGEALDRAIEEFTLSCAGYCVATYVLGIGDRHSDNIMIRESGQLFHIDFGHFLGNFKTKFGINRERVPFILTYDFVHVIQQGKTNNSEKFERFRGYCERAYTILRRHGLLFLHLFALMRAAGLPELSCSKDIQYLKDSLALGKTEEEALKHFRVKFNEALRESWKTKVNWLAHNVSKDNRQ
PI3K p110 beta/p85 alpha, sequence (P27986 whole entry): as the sequence (P27986 whole entry) above
PI3K p110 beta/p85 alpha, sequence (P42338 whole entry): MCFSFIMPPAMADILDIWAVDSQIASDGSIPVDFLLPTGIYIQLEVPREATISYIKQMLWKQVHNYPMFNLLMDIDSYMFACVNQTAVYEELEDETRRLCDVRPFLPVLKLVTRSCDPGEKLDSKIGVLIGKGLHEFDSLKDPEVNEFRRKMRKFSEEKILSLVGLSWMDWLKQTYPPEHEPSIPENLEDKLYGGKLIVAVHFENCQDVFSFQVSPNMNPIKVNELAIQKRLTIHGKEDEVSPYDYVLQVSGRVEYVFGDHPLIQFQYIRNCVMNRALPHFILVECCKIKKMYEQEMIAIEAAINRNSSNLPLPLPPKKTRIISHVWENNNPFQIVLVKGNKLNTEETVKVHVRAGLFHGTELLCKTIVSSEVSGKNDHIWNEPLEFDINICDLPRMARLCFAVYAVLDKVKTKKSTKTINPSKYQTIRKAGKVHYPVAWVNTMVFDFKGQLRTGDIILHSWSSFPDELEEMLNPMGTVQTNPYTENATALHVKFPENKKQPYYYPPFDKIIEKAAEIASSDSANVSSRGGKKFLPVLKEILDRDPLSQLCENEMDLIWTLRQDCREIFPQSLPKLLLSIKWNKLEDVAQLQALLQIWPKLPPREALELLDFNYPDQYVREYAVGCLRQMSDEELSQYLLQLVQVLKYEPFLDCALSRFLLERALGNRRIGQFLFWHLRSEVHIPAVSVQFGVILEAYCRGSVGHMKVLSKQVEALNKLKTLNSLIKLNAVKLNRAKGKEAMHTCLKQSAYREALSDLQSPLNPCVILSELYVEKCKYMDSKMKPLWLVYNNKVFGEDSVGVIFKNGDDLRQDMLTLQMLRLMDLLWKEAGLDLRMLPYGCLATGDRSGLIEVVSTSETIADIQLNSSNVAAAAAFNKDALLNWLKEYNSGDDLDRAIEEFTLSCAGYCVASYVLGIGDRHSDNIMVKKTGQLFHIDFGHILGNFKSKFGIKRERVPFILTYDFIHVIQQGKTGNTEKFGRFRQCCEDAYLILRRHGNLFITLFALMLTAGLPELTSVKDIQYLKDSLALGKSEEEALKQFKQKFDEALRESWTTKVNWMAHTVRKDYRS
PI3-kinase p110-alpha/p85-alpha, sequence (P27986 whole entry): as the sequence (P27986 whole entry) above
PI3-kinase p110-alpha/p85-alpha, sequence (P42336 whole entry): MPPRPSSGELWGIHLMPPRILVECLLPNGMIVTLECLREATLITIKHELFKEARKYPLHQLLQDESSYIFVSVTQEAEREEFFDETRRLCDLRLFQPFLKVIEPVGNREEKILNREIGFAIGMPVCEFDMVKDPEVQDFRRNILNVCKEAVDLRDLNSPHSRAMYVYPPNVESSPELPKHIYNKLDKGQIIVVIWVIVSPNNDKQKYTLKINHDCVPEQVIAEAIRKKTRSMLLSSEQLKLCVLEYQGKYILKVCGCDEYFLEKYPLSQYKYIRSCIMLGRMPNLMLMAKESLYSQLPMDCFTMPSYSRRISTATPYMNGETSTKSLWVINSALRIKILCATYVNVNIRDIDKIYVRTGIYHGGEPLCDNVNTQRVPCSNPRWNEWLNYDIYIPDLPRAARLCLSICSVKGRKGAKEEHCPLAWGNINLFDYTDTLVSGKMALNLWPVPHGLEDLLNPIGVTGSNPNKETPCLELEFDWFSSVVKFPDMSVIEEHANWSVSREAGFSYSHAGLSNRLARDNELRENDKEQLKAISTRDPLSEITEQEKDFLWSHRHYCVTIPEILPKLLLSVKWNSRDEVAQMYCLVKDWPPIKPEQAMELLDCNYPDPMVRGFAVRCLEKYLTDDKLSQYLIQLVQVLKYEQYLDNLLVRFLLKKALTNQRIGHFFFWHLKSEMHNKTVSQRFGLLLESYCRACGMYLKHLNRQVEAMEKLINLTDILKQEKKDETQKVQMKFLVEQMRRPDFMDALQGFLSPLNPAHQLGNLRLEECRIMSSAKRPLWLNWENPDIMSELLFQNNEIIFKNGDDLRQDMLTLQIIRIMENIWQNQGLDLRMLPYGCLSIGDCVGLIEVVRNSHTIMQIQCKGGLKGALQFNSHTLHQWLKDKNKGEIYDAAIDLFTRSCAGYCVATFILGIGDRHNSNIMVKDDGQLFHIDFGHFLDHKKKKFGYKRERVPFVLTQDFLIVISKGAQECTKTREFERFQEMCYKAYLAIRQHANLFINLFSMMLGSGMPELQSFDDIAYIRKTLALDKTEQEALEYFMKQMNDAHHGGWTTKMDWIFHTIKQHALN

With `Cc1cccc2cc(Cn3nc(-c4cc(O)cc(F)c4)c4c(N)ncnc43)n(-c3ccccc3Cl)c(=O)c12`, the figures for the IC50 (at PI3K p110 beta/p85 alpha; in experiment [1]; in experiment [3]) were less than 1 µM, less than 0.1 µM and less than 10 µM, respectively. Further, in experiment [2], the EC50 (in general, the concentration giving half of the maximal effect) is less than 0.1 µM.
On to `CCc1ccccc1-n1c(Cn2nc(-c3cccc(O)c3)c3c(N)ncnc32)cc2cccc(C)c2c1=O`, for which the IC50 (commonly the point on the concentration scale where inhibition reaches its midpoint) at PI3K p110 beta/p85 alpha is more than 10 µM; in experiment [1], less than 0.1 µM; in experiment [3] it was more than 10 µM. Moreover, in experiment [2], the EC50 is less than 0.1 µM.
Consider `Cc1ccccc1-n1c(Cn2nc(-c3ccc(O)cc3)c3c(N)ncnc32)cc2cccc(C)c2c1=O`, for which the IC50 at PI3K p110 beta/p85 alpha was more than 10 µM; in experiment [1], less than 1 µM; in experiment [3], more than 10 µM. In addition, the EC50 in experiment [2] is less than 1 µM.
For the compound `Cc1ccccc1-n1c(C(C)Nc2ncnc3[nH]cnc23)cc2cccc(C)c2c1=O` (stereo not drawn), the results for the IC50 (on PI3K p110 beta/p85 alpha; in experiment [1]; in experiment [3]) were less than 10 µM, less than 0.1 µM and more than 10 µM, respectively. Further, the EC50 in experiment [2] is less than 0.1 µM.
With `Cc1ccccc1-n1c(Cn2nc(C#C[C@H](C)O)c3c(N)ncnc32)cc2cccc(C)c2c1=O`, the IC50 at PI3K p110 beta/p85 alpha is less than 10 µM; in experiment [1], less than 1 µM; in experiment [3], more than 10 µM. In addition, in experiment [2], the EC50 was less than 1 µM.
For the compound `Cc1cccc2cc(Cn3nc(-c4cccc(O)c4)c4c(N)ncnc43)n(-c3ccccc3O)c(=O)c12`, the IC50 at PI3K p110 beta/p85 alpha is less than 10 µM; in experiment [1], less than 0.1 µM; in experiment [3], more than 10 µM. Moreover, in experiment [2], the concentration giving a half-maximal response (EC50) was less than 0.1 µM.
Regarding `Cc1cccc2cc(Cn3nc(-c4cc(O)cc(F)c4)c4c(N)ncnc43)n(C3CCCC3)c(=O)c12`, the IC50 at PI3K p110 beta/p85 alpha is less than 10 µM; in experiment [1], less than 0.1 µM; in experiment [3] it was less than 10 µM. Also, the EC50 in experiment [2] was less than 0.1 µM.
As to `CC(=O)Nc1nc2ccc(-c3nn(Cc4cc5cccc(C)c5c(=O)n4C)c4ncnc(N)c34)cc2s1`, the concentration for half-maximal inhibition (IC50) at PI3K p110 beta/p85 alpha is less than 1 µM; in experiment [1] it was less than 0.1 µM; in experiment [3], less than 100 µM. In addition, the EC50 in experiment [2] was less than 0.1 µM.
Regarding `Cc1ccccc1-n1c(Cn2nc(-c3cc(O)cc(F)c3)c3c(N)nccc32)cc2cccc(C)c2c1=O`, the IC50 on PI3K p110 beta/p85 alpha is less than 10 µM; in experiment [1] it was less than 0.1 µM; in experiment [3], less than 10 µM. Moreover, the EC50 in experiment [2] was less than 0.1 µM.
Regarding `COc1ccccc1-n1c(Cn2nc(-c3cc(O)cc(F)c3)c3c(N)ncnc32)cc2cccc(C)c2c1=O`, the values for the IC50 (at PI3K p110 beta/p85 alpha; in experiment [1]; in experiment [3]) were less than 10 µM, less than 0.1 µM and less than 10 µM, respectively. In addition, the EC50 in experiment [2] was less than 0.1 µM.
For the compound `Cc1ccccc1-n1c(Cn2nc(-c3ccc4nc(N)ccc4c3)c3c(N)ncnc32)cc2cccc(C)c2c1=O`, the IC50 at PI3K p110 beta/p85 alpha is less than 10 µM; in experiment [1], less than 0.1 µM; in experiment [3], less than 1 µM. In addition, the EC50 in experiment [2] is less than 0.1 µM.
Consider `Cc1ccccc1-n1c(Cn2nc(-c3ccc(Cl)c(O)c3)c3c(N)ncnc32)cc2cccc(C)c2c1=O`, for which the IC50 at PI3K p110 beta/p85 alpha was less than 10 µM; in experiment [1] it was less than 0.1 µM; in experiment [3], more than 10 µM. Besides, in experiment [2], the concentration for a half-maximal effect (EC50) is less than 0.1 µM.
With `CCc1ccccc1-n1c(Cn2nc(-c3cn[nH]c3)c3c(N)ncnc32)cc2cccc(C)c2c1=O`, the half-maximal inhibitory concentration (IC50) on PI3K p110 beta/p85 alpha was less than 10 µM; in experiment [1] it was less than 0.1 µM; in experiment [3] it was less than 10 µM. For the same compound, in experiment [2], the concentration giving a half-maximal response (EC50) was less than 0.1 µM.
With `Cc1cccc2cc(Cn3nc(-c4cc(O)cc(F)c4)c4c(N)ncnc43)n(C3CCCCC3)c(=O)c12`, the figures for the IC50 (on PI3K p110 beta/p85 alpha; in experiment [1]; in experiment [3]) were less than 10 µM, less than 0.1 µM and more than 10 µM, respectively. In addition, the concentration giving a half-maximal response (EC50) in experiment [2] is less than 1 µM.
In the same order, the values of `Cc1cccc2cc(Cn3nc(-c4ccc(O)c(F)c4)c4c(N)ncnc43)n(-c3ccccc3F)c(=O)c12` are more than 10 µM, less than 1 µM, more than 10 µM and less than 1 µM.
The matching figures for `Cc1cccc2cc(Cn3nc(-c4cc(O)cc(F)c4)c4c(N)ncnc43)n(-c3ccccc3C(C)C)c(=O)c12`: less than 1 µM, less than 0.1 µM, less than 1 µM and less than 0.1 µM.
The matching figures for `Cc1cccc2cc(Cn3nc(-c4ccc(Cl)c(O)c4)c4c(N)ncnc43)n(-c3ccccc3F)c(=O)c12`: more than 10 µM, less than 0.1 µM, more than 10 µM and less than 1 µM.
In the case of `Cc1cccc2cc(Cn3nc(-c4cccc(O)c4)c4c(N)ncnc43)n(-c3ccccc3Cl)c(=O)c12`, the 50% inhibitory concentration (IC50) on PI3K p110 beta/p85 alpha is less than 10 µM; in experiment [1] it was less than 0.1 µM; in experiment [3] it was more than 10 µM. In experiment [2], the EC50 is less than 0.1 µM.
In the case of `Nc1ncnc2c1c(-c1cc(O)cc(F)c1)nn2Cc1cc2cccc(Cl)c2c(=O)n1C1CC1`, the half-inhibitory concentration (IC50) on PI3K p110 beta/p85 alpha is less than 0.1 µM; in experiment [1], less than 0.1 µM; in experiment [3], less than 100 µM. Moreover, the EC50 in experiment [2] was less than 0.1 µM.
For `Cc1cccc2cc(Cn3nc(-c4cc(O)cc(F)c4)c4c(N)ncnc43)n(-c3ccccc3O)c(=O)c12`, the values for the IC50 (on PI3K p110 beta/p85 alpha; in experiment [1]; in experiment [3]) were less than 1 µM, less than 0.1 µM and less than 10 µM, respectively. The EC50 in experiment [2] was less than 0.1 µM.
For the compound `Cc1cccc2cc(Cn3nc(C#C[C@@H](C)O)c4c(N)ncnc43)n(C3CCCCC3)c(=O)c12`, the IC50 at PI3K p110 beta/p85 alpha is more than 10 µM; in experiment [1], less than 0.1 µM; in experiment [3], more than 10 µM. For the same compound, the EC50 in experiment [2] is less than 10 µM.
As to `CCc1ccccc1-n1c(Cn2nc(-c3cc(O)cc(F)c3)c3c(N)ncnc32)cc2cccc(C)c2c1=O`, the IC50 at PI3K p110 beta/p85 alpha is less than 1 µM; in experiment [1] it was less than 0.1 µM; in experiment [3] it was less than 10 µM. Besides, the EC50 in experiment [2] is less than 0.1 µM.
Turning to `Cc1cccc2cc(Cn3nc(-c4ccc(F)c(O)c4)c4c(N)ncnc43)n(C(C)C)c(=O)c12`, the IC50 on PI3K p110 beta/p85 alpha is less than 10 µM; in experiment [1] it was less than 0.1 µM; in experiment [3], more than 10 µM. In addition, the EC50 in experiment [2] was less than 0.1 µM.
On to `Cc1ccccc1-n1c(Cn2nc(-c3ccn[nH]3)c3c(N)ncnc32)cc2cccc(C)c2c1=O`, for which the values for the IC50 (at PI3K p110 beta/p85 alpha; in experiment [1]; in experiment [3]) were more than 10 µM, less than 1 µM and more than 10 µM, respectively.
Consider `CC(=O)Nc1nc2ccc(-c3nn(Cc4cc5cccc(Cl)c5c(=O)n4C4CC4)c4ncnc(N)c34)cc2s1`, for which the results for the IC50 (on PI3K p110 beta/p85 alpha; in experiment [1]; in experiment [3]) were less than 0.1 µM, less than 0.1 µM and less than 100 µM, respectively. In experiment [2], the EC50 is less than 0.1 µM.
`CC(=O)Nc1nc2ccc(-c3nn(Cc4cc5cccc(Cl)c5c(=O)n4C(C)C)c4ncnc(N)c34)cc2s1`: the IC50 is less than 0.1 µM on PI3K p110 beta/p85 alpha, less than 0.1 µM in experiment [1] and less than 100 µM in experiment [3]. The 50% effective concentration (EC50) in experiment [2] was less than 0.1 µM.
As for `Cc1cccc2cc(Cn3nc(-c4cccc(O)c4)c4c(N)ncnc43)n(C3CCCCC3)c(=O)c12`, the IC50 on PI3K p110 beta/p85 alpha was less than 10 µM; in experiment [1] it was less than 0.1 µM; in experiment [3], more than 10 µM. In addition, the EC50 in experiment [2] was less than 1 µM.
The matching figures for `Cc1ccccc1-n1c(Cn2nc(-c3ccc(O)c(Cl)c3)c3c(N)ncnc32)cc2cccc(C)c2c1=O`: less than 10 µM, less than 0.1 µM, more than 10 µM and less than 1 µM.
The matching figures for `Cc1ccccc1-n1c(Cn2nc(-c3ccc4nc(N)ncc4c3)c3c(N)ncnc32)cc2cccc(C)c2c1=O`: less than 1 µM, less than 0.1 µM, less than 100 µM and less than 0.1 µM.
In the case of `Cc1ccccc1-n1c(Cn2nc(-c3ccc(Cl)c(O)c3)c3c(N)ncnc32)cc2ccccc2c1=O`, the IC50 was more than 10 µM on PI3K p110 beta/p85 alpha, less than 0.1 µM in experiment [1] and more than 10 µM in experiment [3].

(Values after ChEMBL document CHEMBL3879901, “Substituted isoquinolin-1(2H)-ones, and methods of use thereof” (2012).)
